# Experimental data taken from patent US5677285A, “Derivatives of neuraminic acid” (Fidia S.P.A., priority 1992, dated 1997).
# Read-outs that look alike come from different tables or passages of the source.
# Tests used:
# cerebellar granule cells [1] = assay: Protective effect on exogenous glutamate induced neurotoxicity, pretreatment, MTT test; assay type: cell-based, Sprague-Dawley rats; conditions: glutamate 100 μM, 2 hours pretreatment
# Procedure: Primary cell cultures of cerebellar granule Cells were prepared from 6 day old Sprague-Dawley rats. Neurons were grown in 35 mm plates for 11-13 days and maintained in a humid environment (95% air and 5% CO2). Cultures (3×10^6 cells/plate) are mainly formed by granule cells (95%) with a small amount (5%) of glial cells (Gallo V. et al.: Selective release of glutamate from cerebellar granule cells differentiating in culture. Proc. Natl. Acad. Sci. USA 79, 7919-23, 1982). Glial proliferation was prevented by arabinofuranoside cytosine.
# Derivative ND37 was solubilized at a concentration of 1×10^-2 M in dimethylsulfoxide (1% DMSO) and then diluted at various concentrations in Locke's solution (154 mM NaCl/1/5.6 mM KCl/3.6 mM NaHCO3 /2.3 mM CaCl2 /1 mM MgCl2 /5.6 mM glucose/5 mM HEPES, pH 7.4). The following concentrations were tested: 5×10^-6 M, 1×10^-5 M, and 2×10^-5 M.
# The cell culture medium was aspirated from the plates (and correctly maintained). Plates were washed (3×2 ml) with Locke's solution, and solutions (1.5 ml) containing the compound to be tested (concentrations from 5×10^-6 M to 2×10^-5 M) were added and incubated for 2 hours in an incubator at 37° C. (5% CO2).
# Treated cells were washed (3×2 ml) with Locke's solution+10% fetal calf serum, then washed (3×2 ml) with Locke's solution without Mg^++. 100 μM glutamate (1.5 ml) in Locke's solution (-Mg^++) or culture medium (controls) were added. Incubation with glutamate was performed for 15 minutes at room temperature (27° C.). Glutamate was removed, the plates were washed with Locke's solution (2×2 ml), and then incubated in presence of the starting medium (correctly maintained) for 24 hours at 37° C. in an incubator (5% C2 O). At the end of the incubation, cellular viability was assayed via quantification by the MTT colorimetric test (Mosmann T.: Rapid colorimetric assay for cellular growth and survival: application to proliferation and cytotoxicity assays. J. Immunol. Meth. 65, 55: 63, 1983 and modified according to Skaper S. D. et al.: Death of cultured hippocampal pyramidal neurons induced by pathological activation of N-methyl-D-aspartate receptors is reduced by monosialogangliosides. J. Pharm. Exp. Ter. 259,1 452-457, 1991). Data are expressed as % survival. The significance was calculated according to the Dunnett test.
# cerebellar granule cells [2] = assay: Protective effect on exogenous glutamate-induced neurotoxicity during cotreatment, FDA/PI test; assay type: cell-based, rats; conditions: Rattus norvegicus, 24 h, glutamate 50 μM cotreatment, read-out: % surviving cells N = 4 (average + s.e.) FDA/PI test
# Procedure: Primary cerebellar granule cells were prepared from 8 day old rats (Zivic Miller, Pittsburgh, Pa, USA). […] Glial proliferation was prevented by arabinofuranoside cytosine.
# The following concentrations were tested: 5×10^-6 M, 1×10^-5 M, and 2×10^5 M.
# The cell culture medium was aspirated from the plates (and correctly maintained). Plates were washed (3×2 ml) with Locke's solution without Mg^++, and solutions (1.5 ml) containing the compound to be tested (concentrations from 5×10^6 M to 2×10^5 M) were added and incubated for 2 hours in an incubator at 37° C. (5% CO2).
# Treated cells were washed (3×2 ml) with Locke's solution+10% fetal calf serum, then washed (3×2 ml) with Locke's solution without Mg^++. 1.5 ml of Locke's solution (-Mg^++) or 50 μM of glutamate±the test compound (concentrations between 1 and 4×10^-5 M) in 1.5 ml of Locke's solution (-M^++) were added. The incubation was conducted for 15 minutes (37° C.). Glutamate and the compound were removed. The plates were washed with Locke's solution (2×2 ml), and then incubated in the presence of the starting medium (correctly maintained) for 24 hours at 37° C. in an incubator (5% CO2). […] The stained cells where immediately analyzed using a standard fluorescence microscope for epiillumination (Vanox Olympus, 450 nm excitation, 520 nm emission). FDA, a non polar ester, crosses cell membranes and is hydrolyzed by intracellular esterases with the consequent production of a yellow greenish color.
# After glutamate treatment, some neurons can degenerate and detach from the plates. The loss of cells was estimated by comparing the number of intact or degenerated neurons in a well defined field, which was photographed before and after 24 hours after application of glutamate. The percent of surviving neurons in 4 representative fields (magnification 40×) of each monolayer was determined by a researcher unaware of the experimental conditions, evaluating the FDA/PI color, and calculating it as follows: [formula]
# Data are expressed as % of surviving cells. Significance was calculated using the Dunnett's test.
# cerebellar granule cells [3] = assay: Extracellular glutamate and aspartate content in potassium induced depolarization (HPLC); assay type: cell-based, Sprague-Dawley rats
# Procedure: Primary cell cultures of cerebellar granule cells were prepared from 8 day old Sprague-Dawley rats.
# Neurons were grown in 35 mm plates for 11-13 days and maintained in a humid environment (95% air and 5% CO2). Cultures (3×10^6 cells/plate) are mainly formed by granule cells (95%, with a small amount (5%) of glial cells (Gallo V. et al.: Selective release of glutamate from cerebellar granule cells differentiating in culture. Proc. Natl. Acad. Sci. USA 79, 7919-23, 1982). Glial proliferation was prevented by arabinofuranoside cytosine.
# Derivative ND37 was solubilized at a concentration of […] in dimethylsulfoxide (1% DMSO), and then diluted at various concentrations (0.1-1-10-20 μM) in Locke's solution (154 mM NaCl/5.6 mM KCl/3.6 mM NaHCO3 /2.3 mM CaCl2 /1 mM MgCl2 /5.6mM glucose/5 mM HEPES, pH 7.4). […]
# The cell culture medium was aspirated from the plates. Plates were washed (3×2 ml) with Locke's solution, and solutions (750 μl) containing the compound to be tested (concentrations from 0.1 to 20 μM) were added and incubated for 2 hours in an incubator at 37° C. (5% CO2) both in the presence and absence of different depolarizing concentrations of KCl (between 5 and 50 mM). The incubation medium was gathered, filtered through a 0.2 μ filter, and processed (220 μl) for the analysis of the amino acid content.
# The glutamate and aspartate content (expressed as μM) was evaluated by HPLC (high pressure liquid chromatography), according to Bidlingmeryer B. A. et al., J. Chromatogr. 336, 93-104, 1984.
# neonatal rats = assay: Cerebral damage induced by icv injection of N-methyl-D-aspartate, total brain weight; assay type: in vivo; conditions: for Total brain weight: NMDA 25 nmoles icv, 1 hour before and immediately after NMDA, day 12
# Procedure: Experiments were performed on 7 day old neonatal rats weighing ca. 13 grams. […] The excitotoxin was solubilized in saline, and the pH was brought to 7.4 by adding 1N NaOH. The NMDA injection (25 nmoles/μl) was performed slowly (2 minutes) at the level of the right lateral ventricle utilizing a Hamilton syringe. Saline was administered to control animals (1 μl icv).
# The compound was administered subcutaneously (sc) after suspension in 1% DMSO (experiment No. 1) or in 0.5% tragacanth (experiment No. 2). The compound was tested at the following doses: 1-3-5 mg/kg sc.
# The treatment was conducted performing two administrations:
# 1 hour before NMDA injection;
# immediately after NMDA injection.
# The number of animals utilized in each experimental group (corresponding to the total number of animals, i.e., experiment 1+experiment 2, according to Table 3) is indicated in brackets.
# Animals were sacrificed on the 12th day (i.e., 5 days after NMDA injection) for the evaluation of the in toto brain weight, defined in mg.
# The statistical significance was evaluated using Dunnett's test.
# [4] = controls + ND 37 (20 uM), no KCl
# [5] = group 3: KCl (50 mM) + ND37 (20 uM) as printed, corresponding group KCl (30 mM)
# [6] = group 4: KCl (50 mM) + ND37 (20 uM), Table 5
# [7] = group 5: KCl (50 mM) + ND37 (20 uM) as printed, corresponding group KCl (25 mM)
# [8] = group 6: KCl (50 mM) + ND37 (20 uM) as printed, corresponding group KCl (15 mM)
smiles,measurement,setting,value
"CCCCCCCCCCCCCCCC(=O)NC1C(O)CC(OCC)(C(=O)N(C)C)OC1C(O)C(O)CO (stereo not drawn) [ND37, β-2-O-ethylglycoside of the dimethylamide of N-palmitoylneuraminic acid]",viability at 10 µM,"cerebellar granule cells [1]; Rattus norvegicus, ND37 1 × 10^-5 M, read-out: % survival",~63%
same,viability at 20 µM,"cerebellar granule cells [1]; Rattus norvegicus, ND37 2 × 10^-5 M, read-out: % survival",~83%
same,viability at 5 µM,"cerebellar granule cells [1]; Rattus norvegicus, ND37 5 × 10^-6 M, read-out: % survival",37 ± 5%
same,MTT values,cerebellar granule cells [1]; ND37 1 × 10^-5 M,0.123 ± 0.006
same,MTT values,cerebellar granule cells [1]; ND37 2 × 10^-5 M,0.326 ± 0.016
same,MTT values,cerebellar granule cells [1]; ND37 5 × 10^-6 M,0.110 ± 0.015
same,viability at 10 µM,cerebellar granule cells [2]; ND37 1 × 10^-5 M,34 ± 2%
same,viability at 20 µM,cerebellar granule cells [2]; ND37 2 × 10^-5 M,70 ± 6%
same,viability at 40 µM,cerebellar granule cells [2]; ND37 4 × 10^-5 M,88 ± 4.5%
same,glutamate increase induced by KCl in the culture medium,cerebellar granule cells [3]; 20 μM,completely abolished
same,extracellular increase of glutamate and aspartate induced by KCl,"cerebellar granule cells [3]; 20 μM, KCl 15, 25, 30, and 50 mM",completely abolished
same,Extracellular glutamate content,cerebellar granule cells [3]; KCl (50 mM) + ND37 (0.1 uM),12.60 ± 0.57 µM
same,Extracellular glutamate content,cerebellar granule cells [3]; KCl (50 mM) + ND37 (1 uM),13.30 ± 1.33 µM
same,Extracellular glutamate content,cerebellar granule cells [3]; KCl (50 mM) + ND37 (10 uM),5.60 ± 2.37 µM
same,Extracellular glutamate content,"cerebellar granule cells [3]; KCl (50 mM) + ND37 (20 uM), Table 4",0.11 ± 0.09 µM
same,activity at 0.1 µM,"cerebellar granule cells [3]; Rattus norvegicus, 2 h, KCl (50 mM) + ND37 (0.1 uM)",72%
same,activity at 1 µM,"cerebellar granule cells [3]; Rattus norvegicus, 2 h, KCl (50 mM) + ND37 (1 uM)",76%
same,activity at 10 µM,"cerebellar granule cells [3]; Rattus norvegicus, 2 h, KCl (50 mM) + ND37 (10 uM)",32%
same,activity at 20 µM,"cerebellar granule cells [3]; Rattus norvegicus, 2 h, KCl (50 mM) + ND37 (20 uM), Table 4, read-out: % KCl 50 Mm (extracellular glutamate)",0.01%
same,activity at 20 µM,"cerebellar granule cells [3]; Rattus norvegicus, 2 h, group 3: KCl (50 mM) + ND37 (20 uM) as printed, corresponding group KCl (30 mM), read-out: % corresp. KCl (aspartate)",0.06%
same,activity at 20 µM,"cerebellar granule cells [3]; Rattus norvegicus, 2 h, group 3: KCl (50 mM) + ND37 (20 uM) as printed, corresponding group KCl (30 mM), read-out: % corresp. KCl (glutamate)",0.01%
same,activity at 20 µM,"cerebellar granule cells [3]; Rattus norvegicus, 2 h, group 4: KCl (50 mM) + ND37 (20 uM), Table 5, read-out: % corresp. KCl (aspartate)",0.13%
same,activity at 20 µM,"cerebellar granule cells [3]; Rattus norvegicus, 2 h, group 4: KCl (50 mM) + ND37 (20 uM), Table 5, read-out: % corresp. KCl (glutamate)",0.02%
same,activity at 20 µM,"cerebellar granule cells [3]; Rattus norvegicus, 2 h, group 5: KCl (50 mM) + ND37 (20 uM) as printed, corresponding group KCl (25 mM), read-out: % corresp. KCl (aspartate)",0.28%
same,activity at 20 µM,"cerebellar granule cells [3]; Rattus norvegicus, 2 h, group 5: KCl (50 mM) + ND37 (20 uM) as printed, corresponding group KCl (25 mM), read-out: % corresp. KCl (glutamate)",0.06%
same,activity at 20 µM,"cerebellar granule cells [3]; Rattus norvegicus, 2 h, group 6: KCl (50 mM) + ND37 (20 uM) as printed, corresponding group KCl (15 mM), read-out: % corresp. KCl (aspartate)",0.09%
same,activity at 20 µM,"cerebellar granule cells [3]; Rattus norvegicus, 2 h, group 6: KCl (50 mM) + ND37 (20 uM) as printed, corresponding group KCl (15 mM), read-out: % corresp. KCl (glutamate)",0.34%
same,inhibition at 0.1 µM,"cerebellar granule cells [3]; Rattus norvegicus, 2 h, 0.1 μM, read-out: reduction of extracellular glutamate induced by KCl",~30%
same,Extracell. aspartate content,cerebellar granule cells [3]; [4],0.039 µM
same,Extracell. glutamate content,cerebellar granule cells [3]; [4],0.362 µM
same,basal levels (controls) of extracellular glutamate and aspartate,cerebellar granule cells [3]; doses up to 20 μM,did not modify
same,Extracell. aspartate content,cerebellar granule cells [3]; [5],0.063 µM
same,Extracell. glutamate content,cerebellar granule cells [3]; [5],0.318 µM
same,Extracell. aspartate content,cerebellar granule cells [3]; [6],0.078 µM
same,Extracell. glutamate content,cerebellar granule cells [3]; [6],0.246 µM
same,Extracell. aspartate content,cerebellar granule cells [3]; [7],0.107 µM
same,Extracell. glutamate content,cerebellar granule cells [3]; [7],0.330 µM
same,Extracell. aspartate content,cerebellar granule cells [3]; [8],0.046 µM
same,Extracell. glutamate content,cerebellar granule cells [3]; [8],0.899 µM
same,efficacy against NMDA brain damage,"neonatal rats; 1 mg/kg sc, p<0.01",significatively effective
same,reduction of brain damage induced by the excitotoxin (lowering of total brain weight),neonatal rats; 1-3-5 mg/kg sc,effective in reducing the brain damage
same,Total brain weight,"neonatal rats; Experiment n.1 (vehicle = DMSO 1%), 1 mg/kg sc",960 mg
same,Total brain weight,"neonatal rats; Experiment n.1 (vehicle = DMSO 1%), 3 mg/kg sc",968 mg
same,Total brain weight,"neonatal rats; Experiment n.1 (vehicle = DMSO 1%), 5 mg/kg sc",959 mg
same,Total brain weight,"neonatal rats; Experiment n.2 (0.5% tragacanth), 1 mg/kg sc",1019 mg
same,Total brain weight,"neonatal rats; Experiment n.2 (0.5% tragacanth), 3 mg/kg sc",977 mg
same,Total brain weight,"neonatal rats; Experiment n.2 (0.5% tragacanth), 5 mg/kg sc",976 mg
